How the values were obtained:
Fgfr3 [1] = test: Fgfr3 protein expression (immunohistochemistry of femurs, Western blot of costal primary chondrocytes); type: cell-based, mouse; conditions: A31; data not shown
Method: Six sets of ex vivo experiments were performed. Femur embryos at day E16.5 from WT (n=6) and Fgfr3^Y367C/+ (n=6) mice were used and incubated for 5 days in DMEM medium with antibiotics and 0.2% BSA (Sigma) supplemented with A31 or PD173074 (as control) at a concentration of 2 mM. Right femur was cultured in supplemented medium and compared with the left one cultured in control medium. Rib cage from E16.5 WT and Fgfr3^Y367C/+ mice embryos were isolated and stripped of all soft tissues. Primary chondrocytes were obtained from rib cages. The ribs were incubated in a pronase solution (Roche; 2 mg/ml) followed by a digestion in Collagenase A (Roche; 3 mg/ml) at 37° C. […] To establish the effect of the inhibitors, the right femur was cultured in supplemented medium and compared with the left one cultured in control medium The bone length was measured at the beginning (before treatment) and at the end of time course. […] The genotype of WT, Fgfr3^Y367C/+ and Fgfr3^−/− mice were determined by PCR of tail DNA as previously described (Pannier et al., Biochim Biophys Acta, 1792: 140-147, 2009). […]
Immunoprecipitation were performed by incubating […] rabbit anti-FGFR3 (Sigma)/[…] protein with protein A-agarose (Roche). […] Bound proteins were detected by chemiluminescence (ECL, Amersham). The blots were rehybrididized with an antipan-actin antibody for quantification (Millipore). […]

[2] = system: FGFR3^Y373C transfected NIH3T3 cells; test: [3H]-thymidine incorporation in NIH3T3 cells expressing FGFR3^Y373C; type: cell-based, mouse; conditions: A31 2 mM
Method: (§1) NIH-3T3 clones stably expressing FGFR3^+/+ (WT) and FGFR3^Y373C, FGFR3K650M (human constructs) were used. The stable clones were selected with G418. NIH-3T3 clones were incubated for 8 h in 10% newborn calf serum DMEM supplemented or not with A31 (2 mM). [3H] thymidine was added at a concentration of […] and incubated for 16 hours. The cells were harvested on glass fiber filter paper and assayed for radioactivity by liquid scintillation counting. The inventors used Top Count Microplates scintillation counter (Perkin Elmer).
(§2) To determine whether A31 modulates the mitogenic activity of activated FGFR3, the inventors measured [3H]-thymidine incorporation in FGFR3^Y373C and FGFR3^K650M transfected NIH3T3 cells. The mitogenic activity was increased in cells expressing FGFR3 mutations compared to WT (FGFR3^Y373C, 9927±2921 cpm; FGFR3^K650M, 15048±5251 cpm; WT, 7499±1667 cpm; p<10^−5 versus WT).

FGFR3 [3] = biological target: FGFR3 (Homo sapiens, UniProt P22607); conditions: read-out: IC50 for inhibition of autophosphorylation of FGFR3; cited from earlier work
[4] = system: FGFR3^K650M transfected NIH3T3 cells; test: [3H]-thymidine incorporation in NIH3T3 cells expressing FGFR3^K650M; type: cell-based, mouse; conditions: A31 2 mM
Method: as §1, §2

[5] = system: FGFR3^Y373C, FGFR3^K650E, FGFR3^K650M; test: Constitutive FGFR3 phosphorylation in transfected human chondrocyte lines / HEK cells (immunoprecipitation, immunoblot, immunocytochemistry); type: cell-based
Method: Human Embryonic Kidney (HEK) cells and human chondrocyte lines (Benoist-Lasselin et al., FEBS Lett, 581: 2593-2598, 2007.) were transfected transiently with FGFR3 human constructs (FGFR^3Y373C, FGFR3^K650M, FGFR3^K650E) (Gibbs, L. and Legeai-Mallet, L. Biochim Biophys Acta, 1773: 502-512, 2007) using Fugene 6 (Roche). A31 (31) or PD173074 (Parke Davies) were added at a concentration of 2 mM overnight. Transfected cells were lysed in RIPA buffer (50 mM Tris-HCl pH 7.6, 150 mM NaCl, 0.5% NP40, 0.25% sodium deoxycholate, supplemented with protease and phosphatase inhibitors).
Immunoprecipitation were performed by incubating […] rabbit anti-FGFR3 (Sigma)/[…] protein with protein A-agarose (Roche). […] Bound proteins were detected by chemiluminescence (ECL, Amersham). The blots were rehybrididized with an antipan-actin antibody for quantification (Millipore).
For immunocytochemistry, the inventors used the following primary antibodies: anti-FGFR3 antibodies (1:400 dilution; Sigma) and anti-phosphotyrosine antibodies (1:200 dilution; Cell Signaling) and secondary antibodies Alexa Fluor®488 goat antirabbit and Alexa Fluor®568 goat anti-mouse (1:400 dilution; Molecular Probes). Cells were covered with Faramount Aquaeous Mounting Medium (Dako) and analyzed using an Olympus PD70-IX2-UCB microscope. […]

Chain of FGFR3 (P22607 23-806): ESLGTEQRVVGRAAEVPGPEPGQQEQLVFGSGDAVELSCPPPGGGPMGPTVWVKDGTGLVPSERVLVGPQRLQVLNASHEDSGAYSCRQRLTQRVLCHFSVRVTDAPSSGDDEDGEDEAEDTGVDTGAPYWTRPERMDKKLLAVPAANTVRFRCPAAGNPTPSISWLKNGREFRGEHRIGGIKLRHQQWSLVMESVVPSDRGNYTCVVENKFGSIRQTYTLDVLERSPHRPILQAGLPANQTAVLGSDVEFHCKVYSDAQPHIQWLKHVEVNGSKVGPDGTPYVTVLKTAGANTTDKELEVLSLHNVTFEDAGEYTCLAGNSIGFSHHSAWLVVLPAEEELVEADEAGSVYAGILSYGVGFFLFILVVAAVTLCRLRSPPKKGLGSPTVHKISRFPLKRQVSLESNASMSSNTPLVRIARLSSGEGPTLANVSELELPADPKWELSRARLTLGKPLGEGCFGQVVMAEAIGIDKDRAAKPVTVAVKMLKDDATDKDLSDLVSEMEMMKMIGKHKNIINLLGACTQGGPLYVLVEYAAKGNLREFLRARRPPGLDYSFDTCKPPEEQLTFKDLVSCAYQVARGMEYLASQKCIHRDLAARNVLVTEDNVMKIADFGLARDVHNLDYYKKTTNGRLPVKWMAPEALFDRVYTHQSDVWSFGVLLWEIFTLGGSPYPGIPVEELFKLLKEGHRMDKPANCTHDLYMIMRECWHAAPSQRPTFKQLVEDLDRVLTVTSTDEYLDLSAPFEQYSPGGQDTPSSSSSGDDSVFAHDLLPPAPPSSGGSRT

For `COc1cc(OC)cc(-c2cc3cnc(NCc4cn(CC5CCCN(C)C5)nn4)nc3nc2NC(=O)NC(C)(C)C)c1` (stereo not drawn) [Compound A31], the “Fgfr3 expression in mutant femurs (immunohistochemical staining)” value (Fgfr3 [1]) is given as “large decrease of Fgfr3 expression”, the “[3H]-thymidine incorporation (DNA synthesis)” value [2] is given as 3144±1201 cpm and the IC50 (FGFR3 [3]) is given as ~190 nM. The “[3H]-thymidine incorporation (DNA synthesis)” value [4] was 6281±2699 cpm, the “constitutive FGFR3 receptor phosphorylation (immunoprecipitation and Western blotting)” value ([5]; 2 mM overnight, cells expressing FGFR3^Y373C, FGFR3^K650E, FGFR3^K650M) was “abolished receptor phosphorylation” and the “FGFR3 phosphorylation by immunocytochemistry” value ([5]; transfected cells expressing FGFR3 mutations, data not shown) was “complete inhibition”.
